Reference: ChEMBL document CHEMBL1153451, “Novel aminopeptidase N inhibitors derived from antineoplaston AS2-5 (Part I)” (Bioorg Med Chem, 2009)
The source made the active and inactive calls. No cut-off for these calls is given here.

What was measured:
Aminopeptidase N = molecular target: T1, Aminopeptidase N (Sus scrofa, UniProt P15145); assay: (§1) Inhibition of pig kidney microsome aminopeptidase N by UV-visible spectrophotometer
T1 sequence (P15145 whole entry): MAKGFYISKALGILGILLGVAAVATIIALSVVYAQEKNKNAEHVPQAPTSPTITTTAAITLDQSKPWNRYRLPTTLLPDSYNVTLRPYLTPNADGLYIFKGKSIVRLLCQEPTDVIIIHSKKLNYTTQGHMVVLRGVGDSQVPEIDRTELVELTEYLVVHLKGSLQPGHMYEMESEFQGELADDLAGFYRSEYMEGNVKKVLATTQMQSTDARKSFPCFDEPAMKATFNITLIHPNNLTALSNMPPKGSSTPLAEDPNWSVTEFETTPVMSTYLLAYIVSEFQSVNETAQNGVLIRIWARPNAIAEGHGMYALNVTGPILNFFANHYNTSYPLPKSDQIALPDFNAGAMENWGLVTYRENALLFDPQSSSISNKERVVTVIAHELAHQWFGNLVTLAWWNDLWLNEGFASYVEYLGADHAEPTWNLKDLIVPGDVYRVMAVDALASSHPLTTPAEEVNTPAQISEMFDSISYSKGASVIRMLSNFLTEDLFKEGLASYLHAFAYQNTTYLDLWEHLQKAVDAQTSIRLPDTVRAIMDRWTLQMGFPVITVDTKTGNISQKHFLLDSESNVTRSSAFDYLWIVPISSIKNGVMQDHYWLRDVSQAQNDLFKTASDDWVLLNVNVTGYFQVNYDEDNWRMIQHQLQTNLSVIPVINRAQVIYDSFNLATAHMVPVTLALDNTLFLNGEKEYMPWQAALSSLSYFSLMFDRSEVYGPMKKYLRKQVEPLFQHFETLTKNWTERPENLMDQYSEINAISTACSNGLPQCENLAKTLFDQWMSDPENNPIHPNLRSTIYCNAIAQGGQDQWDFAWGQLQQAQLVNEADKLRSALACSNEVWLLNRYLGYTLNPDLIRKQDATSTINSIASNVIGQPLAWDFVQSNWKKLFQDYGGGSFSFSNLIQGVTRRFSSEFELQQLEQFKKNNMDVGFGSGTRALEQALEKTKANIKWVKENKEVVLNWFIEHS

[1] = molecular target: 72 kDa type IV collagenase (Homo sapiens, UniProt P08253); assay: Inhibition of MMP2 by spectrophotometry
[2] = molecular target: T2, Aminopeptidase N (Sus scrofa) (UniProt P15145); assay: as §1
T2 sequence (whole entry): T1 sequence (P15145 whole entry)

SMILES | IC50 (Aminopeptidase N) [µM] | IC50 [1] [µM] | Activity [2] | Activity [1]
COc1cc(C(=O)N[C@H](CCC(=O)O)C(=O)Nc2ccc(S(=O)(=O)Nc3nccs3)cc2)cc(OC)c1OC | 40.1 | 55.3 |  | 
COc1cc(C(=O)N[C@H](CCC(=O)O)C(=O)Nc2ccc(N)cc2)cc(OC)c1OC | 23.4 | 33.6 |  | 
COc1cc(C(=O)N[C@H](CCC(=O)O)C(=O)NCc2cccc(I)c2)cc(OC)c1OC | 65.9 | 76.8 |  | 
COc1cc(C(=O)N[C@H](CCC(=O)O)C(=O)Nc2ccc(F)cc2F)cc(OC)c1OC | 89.6 | 109 |  | 
COc1cc(C(=O)N[C@H](CCC(=O)O)C(=O)Nc2ccc(F)cc2)cc(OC)c1OC | 24.3 | 26.1 |  | 
CC(C)C[C@H](NC(=O)[C@@H](O)[C@H](N)Cc1ccccc1)C(=O)O [UBENIMEX] |  | 40.5 |  | 
COc1cc(C(=O)N[C@H](CCC(=O)O)C(=O)Nc2ccc([N+](=O)[O-])cc2)cc(OC)c1OC |  |  | inactive | inactive
COc1cc(C(=O)N[C@H](CCC(=O)O)C(=O)Nc2ccc(Br)cc2)cc(OC)c1OC | 41.9 | 54.4 |  | 
COc1cc(C(=O)N[C@H](CCC(=O)O)C(=O)Nc2nccs2)cc(OC)c1OC | 108 | 369 |  | 
COc1cc(C(=O)N[C@H](CCC(=O)O)C(=O)Nc2ccc(C(=O)O)cc2)cc(OC)c1OC | 65.8 | 71.2 |  | 
COc1cc(C(=O)N[C@H](CCC(=O)O)C(=O)NNC(=O)c2cccnc2)cc(OC)c1OC | 72.4 | 115 |  | 
COc1cc(C(=O)N[C@H](CCC(=O)O)C(=O)Nc2ccc(F)c(Cl)c2)cc(OC)c1OC | 78.5 | 107 |  | 
COc1cc(C(=O)N[C@H](CCC(=O)O)C(=O)NCc2ccc(Cl)cc2F)cc(OC)c1OC | 45.6 | 52.8 |  | 
COc1cc(C(=O)N[C@H](CCC(=O)O)C(=O)NNC(=O)c2nccs2)cc(OC)c1OC | 87.7 | 169 |  | 
COc1cc(C(=O)N[C@H](CCC(=O)O)C(=O)Nc2cc(Cl)ccc2Cl)cc(OC)c1OC | 80.4 | 122 |  | 
COc1cc(C(=O)N[C@H](CCC(=O)O)C(=O)Nc2ccc(C(=O)O)c(O)c2)cc(OC)c1OC | 57.8 | 86.3 |  | 
COc1cc(C(=O)NC2CCC(=O)N(c3ccccc3N)C2=O)cc(OC)c1OC (stereo not drawn) | 104 | 660 |  | 
COc1cc(C(=O)N[C@H](CCC(=O)O)C(=O)NCc2cccc(Br)c2)cc(OC)c1OC | 177 | 287 |  | 
COc1cc(C(=O)N[C@H](CCC(=O)O)C(=O)Nc2ccc(S(N)(=O)=O)cc2)cc(OC)c1OC | 103 | 628 |  | 
COc1cc(C(=O)N[C@H](CCC(=O)O)C(=O)Nc2ccc(Cl)cc2)cc(OC)c1OC | 40 | 52.3 |  | 
COc1cc(C(=O)N[C@H](CCC(=O)O)C(=O)NCCCl)cc(OC)c1OC | 805 | 501 |  | 
COc1cc(C(=O)N[C@H](CCC(=O)O)C(=O)NCc2ccc(Br)cc2F)cc(OC)c1OC | 51.2 | 76.1 |  | 
